According to ChEMBL document CHEMBL5154907, “Discovery and Anti-Inflammatory Activity Evaluation of a Novel CDK8 Inhibitor through Upregulation of IL-10 for the Treatment of Inflammatory Bowel Disease In Vivo” (J Med Chem, 2022):
Activity calls are given as the source filed them. No cut-off for these calls is given here.

Columns and labels:
[1] = target: T1, Cyclin-dependent kinase 8 (Mus musculus) (UniProt Q8R3L8); assay: Inhibition of CDK8 in R848-stimulated mouse BMDC cells assessed as downregulation of c-Jun phosphorylation at Ser243 at 1 to 4 uM treated for 2 hrs followed by R848 stimulation for 12 hrs by western blot analysis; type: cell-based; conditions: dose 1-4 µM, time 14.0 hrs
T1 sequence (whole entry): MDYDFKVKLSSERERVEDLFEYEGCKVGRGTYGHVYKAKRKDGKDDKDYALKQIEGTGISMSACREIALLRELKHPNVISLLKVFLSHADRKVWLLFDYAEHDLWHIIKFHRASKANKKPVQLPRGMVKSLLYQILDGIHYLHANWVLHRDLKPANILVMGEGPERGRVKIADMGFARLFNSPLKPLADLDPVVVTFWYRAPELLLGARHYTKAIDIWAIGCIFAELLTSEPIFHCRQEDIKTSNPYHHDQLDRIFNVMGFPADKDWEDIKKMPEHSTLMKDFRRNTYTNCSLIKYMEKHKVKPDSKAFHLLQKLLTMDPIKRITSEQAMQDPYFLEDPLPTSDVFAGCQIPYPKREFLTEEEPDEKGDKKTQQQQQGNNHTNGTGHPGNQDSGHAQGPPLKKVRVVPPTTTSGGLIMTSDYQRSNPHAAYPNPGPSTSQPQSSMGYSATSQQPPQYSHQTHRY

[2] = Stability of compound in human liver microsome assessed as intrinsic clearance by HPLC analysis; type: ADME; conditions: liver microsomes, read-out: CLH
CDK8/Cyclin C = CDK8/Cyclin C (Homo sapiens, UniProt P49336); assay: Inhibition of recombinant full length His tagged human CDK8/Cyclin C expressed in Baculovirus incubated for 60 mins in presence of ATP by ADP-Glo kinase assay
BMDC [3] = assay: Anti-inflammatory activity against R848-stimulated mouse BMDC cells assessed as upregulation of IL-10 production at 5 uM treated for 24 hrs followed by R848 stimulation for 12 hrs by ELISA method (reference value: 100 %); type: functional; conditions: time 36 hrs
Mus musculus [4] = assay: Anti-inflammatory activity in C57BL/6 mouse model of inflammatory bowel disease assessed as reversal of DSS-induced MyD88 expression in colon tissue at 5 to 20 mg/kg, po measured after 10 days by western blot analysis; type: functional, organism-based; conditions: dose 5-20 mg/kg, time 10.0 day
Mus musculus [5] = assay: Anti-inflammatory activity in DSS-induced C57BL/6 mouse model of inflammatory bowel disease assessed as increase in STAT3 phosphorylation in colon tissue at 5 to 20 mg/kg, po measured after 10 days by western blot analysis; type: functional, organism-based; conditions: dose 5-20 mg/kg, time 10.0 day
BMDC [6] = assay: Anti-inflammatory activity against R848-stimulated mouse BMDC cells assessed as upregulation of IL-10 production by ELISA method; type: functional, cell-based
[7] = Bioavailability in Sprague-Dawley rat at 10 mg/kg, po measured for 3 to 1440 mins by HPLC analysis; type: ADME, organism-based; conditions: in vivo, time 3-1440 min
Mus musculus [8] = assay: Anti-inflammatory activity in C57BL/6 mouse model of inflammatory bowel disease assessed as decrease in DSS-induced TNF-alpha levels in colon tissue at 5 to 20 mg/kg, po daily measured after 10 days by ELISA method; type: functional, organism-based; conditions: dose 5-20 mg/kg, time 10.0 day
Mus musculus [9] = assay: Anti-inflammatory activity in DSS-induced C57BL/6 mouse model of inflammatory bowel disease assessed as increase in colon length at 5 to 20 mg/kg, po daily measured after 10 days; type: functional, organism-based; conditions: dose 5-20 mg/kg, time 10.0 day
[10] = target: CDK8/Cyclin C (Homo sapiens) (UniProt P49336+P24863); assay: Inhibition of recombinant full length His tagged human CDK8/Cyclin C expressed in Baculovirus at 200 nM incubated for 60 mins in presence of ATP by ADP-Glo kinase assay
[11] = target: MAP kinase p38 (Mus musculus) (UniProt P47811+O08911+Q9WUI1+Q9Z1B7); assay: Inhibition of P38 phosphorylation in R848-stimulated mouse BMDC cells at 1 to 4 uM treated for 2 hrs followed by R848 stimulation for 12 hrs by western blot analysis; type: cell-based; conditions: dose 1-4 µM, time 14.0 hrs
Mus musculus [12] = assay: Anti-inflammatory activity in C57BL/6 mouse model of inflammatory bowel disease assessed as reversal of DSS-induced TLR7 expression in colon tissue at 5 to 20 mg/kg, po measured after 10 days by western blot analysis; type: functional, organism-based; conditions: dose 5-20 mg/kg, time 10.0 day
[13] = Half life in Sprague-Dawley rat at 5 mg/kg, iv measured for 3 to 1440 mins by HPLC analysis; type: ADME, organism-based; conditions: in vivo, time 3-1440 min
BMDC [14] = assay: Anti-inflammatory activity against R848 stimulated-mouse BMDC cells assessed as downregulation of IL-6 production by ELISA method; type: functional, cell-based
[15] = MRT in Sprague-Dawley rat at 10 mg/kg, po measured for 3 to 1440 mins by HPLC analysis; type: ADME, organism-based; conditions: in vivo, time 3-1440 min
Mus musculus [16] = assay: Anti-inflammatory activity in DSS-induced C57BL/6 mouse model of inflammatory bowel disease assessed as reduction in colitis development by measuring disease activity index score at 5 to 20 mg/kg, po administered measured after 7 days; type: functional, organism-based; conditions: dose 5-20 mg/kg, time 7.0 day, DDE = dose-dependent effect
Mus musculus [17] = assay: Anti-inflammatory activity in DSS-induced C57BL/6 mouse model of inflammatory bowel disease assessed as increase in IL-10 expression in colon tissue at 5 to 20 mg/kg, po measured after 10 days by western blot analysis; type: functional, organism-based; conditions: dose 5-20 mg/kg, time 10.0 day

Sequence of CDK8/Cyclin C (P49336 whole entry): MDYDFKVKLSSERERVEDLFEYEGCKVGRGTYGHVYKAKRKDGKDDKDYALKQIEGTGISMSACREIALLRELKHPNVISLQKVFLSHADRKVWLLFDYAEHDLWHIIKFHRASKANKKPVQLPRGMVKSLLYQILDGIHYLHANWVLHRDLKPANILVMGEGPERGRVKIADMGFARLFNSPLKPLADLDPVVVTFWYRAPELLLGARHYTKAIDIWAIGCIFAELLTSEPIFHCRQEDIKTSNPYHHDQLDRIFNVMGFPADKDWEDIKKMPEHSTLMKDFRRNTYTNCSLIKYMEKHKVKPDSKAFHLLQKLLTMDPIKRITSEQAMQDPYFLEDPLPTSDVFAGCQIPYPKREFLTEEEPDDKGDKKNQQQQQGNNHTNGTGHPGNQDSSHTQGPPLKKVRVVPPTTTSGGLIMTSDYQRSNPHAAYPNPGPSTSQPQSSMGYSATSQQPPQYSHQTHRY
Sequence of CDK8/Cyclin C (P24863 whole entry, further chain): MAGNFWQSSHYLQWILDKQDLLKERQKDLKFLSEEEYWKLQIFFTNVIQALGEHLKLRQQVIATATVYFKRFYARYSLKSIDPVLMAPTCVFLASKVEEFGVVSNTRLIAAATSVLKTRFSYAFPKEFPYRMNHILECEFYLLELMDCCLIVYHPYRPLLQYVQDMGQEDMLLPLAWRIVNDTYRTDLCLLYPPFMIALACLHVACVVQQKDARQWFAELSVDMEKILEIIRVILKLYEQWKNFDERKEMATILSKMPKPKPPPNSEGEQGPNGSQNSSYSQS

CCc1ccccc1NC(=O)c1cncc(-c2ccc(C(=O)N3CCNCC3)cc2)c1
inhibition [1]: Active
microsomal CLint [2]: 5.5 µL/min/mg
IC50 (CDK8/Cyclin C): 56 nM
Activity (BMDC [3]): 88%
Activity (Mus musculus [4]): Active
Activity (Mus musculus [5]): Active
Activity (BMDC [6]): Active
bioavailability [7]: 29.3%
Activity (Mus musculus [8]): Active
Activity (Mus musculus [9]): Active
inhibition [10]: 85%
inhibition [11]: Active
Activity (Mus musculus [12]): Active
half-life [13]: 1.83 h
Activity (BMDC [14]): Active
MRT [15]: 2.03 h
Activity (Mus musculus [16]): Dde
Activity (Mus musculus [17]): Active
